Tested on: Unknown protein yeast genes
Assay: DNA chip mRNA expression in yeast, unknown protein yeast genes (Table 1)
Assay type: cell-based, Saccharomyces cerevisiae S288C
Outline: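 In this screen, yeast in logarithmic growth are challenged for two hours with a toxic substance at a non-lethal inhibitory concentration. Their mRNA, converted to Cy3- or Cy5-labeled cDNA, hybridizes at 65° C. to a chip spanning every yeast gene, and expression is expressed as a ratio to untreated cells.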

N#Cc1c(Cl)c(Cl)c(Cl)c(C#N)c1Cl [(9), 2,4,5,6-tetrachloro-1,3-benzenedicarbonitrile]
The level of expressed mRNA in the presence of chemical substance/The level of expressed mRNA in the absence of chemical substance (yeast gene YAL053W, incubated two hours with chemical substance): 1.4
The level of expressed mRNA in the presence of chemical substance/The level of expressed mRNA in the absence of chemical substance (yeast gene YBL048W): 7.2
The level of expressed mRNA in the presence of chemical substance/The level of expressed mRNA in the absence of chemical substance (yeast gene YBL107C): 1.0
The level of expressed mRNA in the presence of chemical substance/The level of expressed mRNA in the absence of chemical substance (yeast gene YDL072C, incubated two hours with chemical substance): 1.1
The level of expressed mRNA in the presence of chemical substance/The level of expressed mRNA in the absence of chemical substance (yeast gene YDL146W): 0.8
The level of expressed mRNA in the presence of chemical substance/The level of expressed mRNA in the absence of chemical substance (yeast gene YDL204W, incubated two hours with chemical substance): 2.3
The level of expressed mRNA in the presence of chemical substance/The level of expressed mRNA in the absence of chemical substance (yeast gene YDL222C, incubated two hours with chemical substance): 1.9
The level of expressed mRNA in the presence of chemical substance/The level of expressed mRNA in the absence of chemical substance (yeast gene YDR057W): 1.5
The level of expressed mRNA in the presence of chemical substance/The level of expressed mRNA in the absence of chemical substance (yeast gene YDR286C): 0.8
The level of expressed mRNA in the presence of chemical substance/The level of expressed mRNA in the absence of chemical substance (yeast gene YDR330W, incubated two hours with chemical substance): 3.9
The level of expressed mRNA in the presence of chemical substance/The level of expressed mRNA in the absence of chemical substance (yeast gene YDR391C, incubated two hours with chemical substance): 1.5
The level of expressed mRNA in the presence of chemical substance/The level of expressed mRNA in the absence of chemical substance (yeast gene YDR411C, incubated two hours with chemical substance): 0.7
The level of expressed mRNA in the presence of chemical substance/The level of expressed mRNA in the absence of chemical substance (yeast gene YDR511W, incubated two hours with chemical substance): 2.5
The level of expressed mRNA in the presence of chemical substance/The level of expressed mRNA in the absence of chemical substance (yeast gene YDR545W, incubated two hours with chemical substance): 1.8
The level of expressed mRNA in the presence of chemical substance/The level of expressed mRNA in the absence of chemical substance (yeast gene YEL001C, incubated two hours with chemical substance): 2.0
The level of expressed mRNA in the presence of chemical substance/The level of expressed mRNA in the absence of chemical substance (yeast gene YER004W, incubated two hours with chemical substance): 4.5
The level of expressed mRNA in the presence of chemical substance/The level of expressed mRNA in the absence of chemical substance (yeast gene YER035W, incubated two hours with chemical substance): 1.2
The level of expressed mRNA in the presence of chemical substance/The level of expressed mRNA in the absence of chemical substance (yeast gene YER079W, incubated two hours with chemical substance): 5.3
The level of expressed mRNA in the presence of chemical substance/The level of expressed mRNA in the absence of chemical substance (yeast gene YER106W, incubated two hours with chemical substance): 0.4
The level of expressed mRNA in the presence of chemical substance/The level of expressed mRNA in the absence of chemical substance (yeast gene YER158C, incubated two hours with chemical substance): 2.1
The level of expressed mRNA in the presence of chemical substance/The level of expressed mRNA in the absence of chemical substance (yeast gene YER163C, incubated two hours with chemical substance): 5.4
The level of expressed mRNA in the presence of chemical substance/The level of expressed mRNA in the absence of chemical substance (yeast gene YER175C, incubated two hours with chemical substance): 1.9
The level of expressed mRNA in the presence of chemical substance/The level of expressed mRNA in the absence of chemical substance (yeast gene YFL006W, incubated two hours with chemical substance): 3.2
The level of expressed mRNA in the presence of chemical substance/The level of expressed mRNA in the absence of chemical substance (yeast gene YFL010C, incubated two hours with chemical substance): 3.1
The level of expressed mRNA in the presence of chemical substance/The level of expressed mRNA in the absence of chemical substance (yeast gene YFL017C): 0.8
The level of expressed mRNA in the presence of chemical substance/The level of expressed mRNA in the absence of chemical substance (yeast gene YFL024C): 0.5
The level of expressed mRNA in the presence of chemical substance/The level of expressed mRNA in the absence of chemical substance (yeast gene YFL032W, incubated two hours with chemical substance): 0.5
The level of expressed mRNA in the presence of chemical substance/The level of expressed mRNA in the absence of chemical substance (yeast gene YFR008W): 1.5
The level of expressed mRNA in the presence of chemical substance/The level of expressed mRNA in the absence of chemical substance (yeast gene YGL037C, incubated two hours with chemical substance): 2.1
The level of expressed mRNA in the presence of chemical substance/The level of expressed mRNA in the absence of chemical substance (yeast gene YGL047W, incubated two hours with chemical substance): 4.5
The level of expressed mRNA in the presence of chemical substance/The level of expressed mRNA in the absence of chemical substance (yeast gene YGL053W, incubated two hours with chemical substance): 3.3
The level of expressed mRNA in the presence of chemical substance/The level of expressed mRNA in the absence of chemical substance (yeast gene YGL121C): 7.0
The level of expressed mRNA in the presence of chemical substance/The level of expressed mRNA in the absence of chemical substance (yeast gene YGR101W, incubated two hours with chemical substance): 4.0
The level of expressed mRNA in the presence of chemical substance/The level of expressed mRNA in the absence of chemical substance (yeast gene YGR110W): 6.4
The level of expressed mRNA in the presence of chemical substance/The level of expressed mRNA in the absence of chemical substance (yeast gene YGR130C, incubated two hours with chemical substance): 2.0
The level of expressed mRNA in the presence of chemical substance/The level of expressed mRNA in the absence of chemical substance (yeast gene YGR154C, incubated two hours with chemical substance): 25.2
The level of expressed mRNA in the presence of chemical substance/The level of expressed mRNA in the absence of chemical substance (yeast gene YHL042W): 0.8
The level of expressed mRNA in the presence of chemical substance/The level of expressed mRNA in the absence of chemical substance (yeast gene YHR138C, incubated two hours with chemical substance): 5.3
The level of expressed mRNA in the presence of chemical substance/The level of expressed mRNA in the absence of chemical substance (yeast gene YHR199C, incubated two hours with chemical substance): 8.6
The level of expressed mRNA in the presence of chemical substance/The level of expressed mRNA in the absence of chemical substance (yeast gene YIL023C, incubated two hours with chemical substance): 3.5
The level of expressed mRNA in the presence of chemical substance/The level of expressed mRNA in the absence of chemical substance (yeast gene YIL024C, incubated two hours with chemical substance): 2.2
The level of expressed mRNA in the presence of chemical substance/The level of expressed mRNA in the absence of chemical substance (yeast gene YIL041W, incubated two hours with chemical substance): 1.8
The level of expressed mRNA in the presence of chemical substance/The level of expressed mRNA in the absence of chemical substance (yeast gene YIL087C, incubated two hours with chemical substance): 2.4
The level of expressed mRNA in the presence of chemical substance/The level of expressed mRNA in the absence of chemical substance (yeast gene YIL117C, incubated two hours with chemical substance): 2.3
The level of expressed mRNA in the presence of chemical substance/The level of expressed mRNA in the absence of chemical substance (yeast gene YJL057C, incubated two hours with chemical substance): 7.3
The level of expressed mRNA in the presence of chemical substance/The level of expressed mRNA in the absence of chemical substance (yeast gene YJL066C, incubated two hours with chemical substance): 2.0
The level of expressed mRNA in the presence of chemical substance/The level of expressed mRNA in the absence of chemical substance (yeast gene YJL082W, incubated two hours with chemical substance): 1.4
The level of expressed mRNA in the presence of chemical substance/The level of expressed mRNA in the absence of chemical substance (yeast gene YJL108C, incubated two hours with chemical substance): 0.3
The level of expressed mRNA in the presence of chemical substance/The level of expressed mRNA in the absence of chemical substance (yeast gene YJL151C, incubated two hours with chemical substance): 0.5
The level of expressed mRNA in the presence of chemical substance/The level of expressed mRNA in the absence of chemical substance (yeast gene YJL152W, incubated two hours with chemical substance): 0.3
The level of expressed mRNA in the presence of chemical substance/The level of expressed mRNA in the absence of chemical substance (yeast gene YJL161W, incubated two hours with chemical substance): 3.1
The level of expressed mRNA in the presence of chemical substance/The level of expressed mRNA in the absence of chemical substance (yeast gene YJL171C, incubated two hours with chemical substance): 1.0
The level of expressed mRNA in the presence of chemical substance/The level of expressed mRNA in the absence of chemical substance (yeast gene YJR008W, incubated two hours with chemical substance): 1.8
The level of expressed mRNA in the presence of chemical substance/The level of expressed mRNA in the absence of chemical substance (yeast gene YKL065C): 3.1
The level of expressed mRNA in the presence of chemical substance/The level of expressed mRNA in the absence of chemical substance (yeast gene YKL071W): 162.2
The level of expressed mRNA in the presence of chemical substance/The level of expressed mRNA in the absence of chemical substance (yeast gene YKL086W, incubated two hours with chemical substance): 8.2
The level of expressed mRNA in the presence of chemical substance/The level of expressed mRNA in the absence of chemical substance (yeast gene YKL147C): 1.0
The level of expressed mRNA in the presence of chemical substance/The level of expressed mRNA in the absence of chemical substance (yeast gene YKL151C, incubated two hours with chemical substance): 3.3
The level of expressed mRNA in the presence of chemical substance/The level of expressed mRNA in the absence of chemical substance (yeast gene YKL153W, incubated two hours with chemical substance): 0.8
